Results from US6376521B1, “A3 adenosine receptor antagonists” (The United States of America as represented by the …, priority 1998, dated 2002).
Where two headings read alike, the source gives them in different places.

Key:
A1 adenosine receptors = biological target: T1, A1 adenosine receptors (Rattus norvegicus, UniProt P25099); assay: Displacement of specific [3H]R-PIA binding in rat brain membranes; settings: for Ki: [3H]R-PIA, rat brain membranes, n = 3-5, read-out: rA1 Ki ± S.E.M.; for inhibition at 100 µM: read-out: rA1 % inhibition (percentage of specific binding displaced)
T1 construct: from tissue
T1 sequence (P25099 1-326): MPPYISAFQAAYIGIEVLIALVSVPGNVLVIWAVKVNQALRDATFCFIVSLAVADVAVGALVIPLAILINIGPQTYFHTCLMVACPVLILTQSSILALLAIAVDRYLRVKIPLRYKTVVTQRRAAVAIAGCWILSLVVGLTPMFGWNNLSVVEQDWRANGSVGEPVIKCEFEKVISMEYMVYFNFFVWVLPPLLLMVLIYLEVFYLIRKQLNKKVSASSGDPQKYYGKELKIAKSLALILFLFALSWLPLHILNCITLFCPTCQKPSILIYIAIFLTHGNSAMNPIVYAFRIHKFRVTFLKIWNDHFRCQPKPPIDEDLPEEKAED

A2A adenosine receptors = biological target: T2, A2A adenosine receptors (Rattus norvegicus, UniProt P30543); assay: Displacement of specific [3H]CGS 21680 binding in rat striatal membranes; settings: for Ki: [3H]CGS 21680, rat striatal membranes, n = 3-6, read-out: rA2A Ki ± S.E.M.
T2 construct: from tissue

rat A3 receptors = biological target: T3, rat A3 receptors (Rattus norvegicus, UniProt P28647); assay: Displacement of specific [125I]AB-MECA binding at rat A3 receptors stably expressed in CHO cells; settings: for rA3/hA3: ratio of affinities at rat vs. human A3 receptors; for rA1/rA3: ratio of affinities rat A1 vs rat A3
T3 construct: expressed in transfected cells
T3 sequence (P28647 1-320): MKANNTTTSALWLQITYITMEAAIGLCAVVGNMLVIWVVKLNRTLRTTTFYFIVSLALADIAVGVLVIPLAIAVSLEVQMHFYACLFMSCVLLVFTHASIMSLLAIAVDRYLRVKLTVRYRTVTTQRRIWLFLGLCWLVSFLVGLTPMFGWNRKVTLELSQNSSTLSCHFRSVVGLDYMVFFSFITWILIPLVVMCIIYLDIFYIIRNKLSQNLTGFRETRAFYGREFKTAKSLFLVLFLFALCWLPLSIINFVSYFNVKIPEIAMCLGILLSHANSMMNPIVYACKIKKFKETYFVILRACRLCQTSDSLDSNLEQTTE

human A3 receptors = biological target: T4, human A3 receptors (Homo sapiens, UniProt P0DMS8); assay: Displacement of specific [125I]AB-MECA binding at human A3 receptors expressed in HEK cells, in membranes; settings: for Ki: [125I]AB-MECA, HEK cell membranes, n = 3-4, read-out: hA3 Ki ± S.E.M.; for rA1/hA3: ratio of affinities rat A1 vs human A3
T4 construct: expressed in transfected cells
T4 sequence (P0DMS8 1-318): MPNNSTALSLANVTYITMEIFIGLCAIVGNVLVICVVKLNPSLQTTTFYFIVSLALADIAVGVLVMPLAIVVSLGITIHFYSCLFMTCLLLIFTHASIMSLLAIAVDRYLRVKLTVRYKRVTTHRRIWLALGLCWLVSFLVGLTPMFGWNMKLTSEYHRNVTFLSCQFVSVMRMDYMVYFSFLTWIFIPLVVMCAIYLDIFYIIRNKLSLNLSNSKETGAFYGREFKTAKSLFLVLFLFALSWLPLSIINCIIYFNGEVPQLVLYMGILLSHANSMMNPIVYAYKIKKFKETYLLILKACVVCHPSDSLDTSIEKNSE

[1] = Table 4, [125I]AB-MECA, CHO cells, n = 3-5, read-out: rA3 Ki

T2 sequence (P30543 whole entry): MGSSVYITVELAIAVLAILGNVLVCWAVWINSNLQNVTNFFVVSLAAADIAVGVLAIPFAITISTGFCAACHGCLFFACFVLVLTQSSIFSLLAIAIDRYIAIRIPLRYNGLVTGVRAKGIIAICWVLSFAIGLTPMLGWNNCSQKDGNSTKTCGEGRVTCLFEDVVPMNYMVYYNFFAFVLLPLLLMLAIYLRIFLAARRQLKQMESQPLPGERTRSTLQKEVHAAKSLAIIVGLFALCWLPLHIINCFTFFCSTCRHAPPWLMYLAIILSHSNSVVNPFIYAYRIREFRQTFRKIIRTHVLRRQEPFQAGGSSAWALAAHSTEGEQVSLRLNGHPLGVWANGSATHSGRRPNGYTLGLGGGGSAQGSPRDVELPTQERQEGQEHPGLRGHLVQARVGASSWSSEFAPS

Row | Compound | Ki (rat A3 receptors; [1]) | Ki (A1 adenosine receptors; Table 2, compounds 33-58) | Ki (A2A adenosine receptors; Table 2, compounds 33-58) | Ki (human A3 receptors; Table 2, compounds 33-58) | rA1/hA3 (human A3 receptors; Table 2) | rA3/hA3 (rat A3 receptors; Table 4) | rA1/rA3 (rat A3 receptors; Table 4) | also measured
1 | CCOC(=O)C1=C(c2ccccc2)NC(C)=C(C(=O)SCC)C1CC (racemic) [Compound 62, 5-Ethel 2-methyl-4ethyl-6-phenyl-3-(ethylsulfanylcarbonyl)-1,4-(±)-dihydropyridine-5-carboxylate] | 4600 ± 380 nM | – | – | – | – | – | – | Ki (A1 adenosine receptors; Table 3): 35.4 ± 4.5 µM; Ki (A2A adenosine receptors; Table 3): 54.8 ± 18.8 µM
2 | CCOC(=O)c1c(-c2ccccc2)nc(C)c(C(=O)SCC)c1CC [Compound 36, 5-Ethyl 2-methyl-4-ethyl-3-(ethylsulfanylcarbonyl)-6-phenylpyridine-5-carboxylate] | 1470 ± 340 nM | 14.8 ± 3.5 µM | 14.9 ± 4.1 µM | 42.9 ± 8.8 nM | 340 | 34 | 10 | –
3 | CCSC(=O)c1c(C)nc(-c2ccccc2)c(C(=O)OCc2ccccc2)c1CC [Compound 39, 5-Benzyl 2-methyl-4-ethyl-3-(ethylsulfanylcarbonyl)-6-phenylpyridine-5-carboxylate] | 1800 ± 320 nM | – | 12.8 ± 2.9 µM | 2610 ± 960 nM | >40 | 0.69 | >50 | rA1 percentage of specific binding displaced (A1 adenosine receptors; Table 2, at 10^−4 M): 20 ± 8% (10^−4)
4 | CCCc1nc(-c2ccccc2)c(C(=O)OCC)c(CC)c1C(=O)SCC [Compound 55, 5-Ethyl 2-propyl-4-ethyl-3-(ethylsulfanylcarbonyl)-6-phenylpyridine-5-carboxylate] | 590 ± 40 nM | 16.7 ± 3 µM | 2.82 ± 0.82 µM | 33.3 ± 10.7 nM | 500 | 18 | 28 | –
5 | CCCOC(=O)c1c(-c2cccc(Cl)c2)nc(CC)c(C(=O)SCCC)c1CC [Compound 54, 5-Propyl 2,4-diethyl-3-propylsulfanylcarbonyl-6-(m-chlorophenyl)pyridine-5-carboxylate] | – | 41.4 ± 11.9 µM | 24.1 ± 7.9 µM | – | – | – | – | Ki (rat A3 receptors): 814 ± 37 nM
6 | CCSC(=O)C1=C(C)NC(c2ccccc2)=C(C(=O)OCc2ccccc2)C1CC (racemic) [Compound 65, 5-Benzyl 2-methyl-4ethyl-6-phenyl-3-(ethylsulfanylcarbonyl)-1,4-(±)-dihydropyridine-5-carboxylate] | 2800 ± 280 nM | – | – | – | – | 1.7 | >20 | inhibition at 100 µM (A1 adenosine receptors; Table 3, at 10^−4 M): 45 ± 2%; Ki (A2A adenosine receptors; Table 3): 14.3 ± 4.2 µM; Ki (human A3 receptors; Table 3): 1650 ± 400 nM; rA1/hA3 (human A3 receptors; Table 3): >50
7 | CCCC1=C(C(=O)SCC)C(CC)C(C(=O)OCC)=C(c2ccccc2)N1 (racemic) [Compound 76, 5-Ethyl 2-propyl-4-ethyl-6-phenyl-3-(ethylsulfanylcarbonyl)-1,4-(±)-dihydropyridine-5-carboxylate] | 2730 ± 140 nM | – | – | – | – | 1.3 | >30 | inhibition at 100 µM (A1 adenosine receptors; Table 3, at 10^−4 M): 26 ± 19%; rA2A displacement of specific binding (class d) (A2A adenosine receptors; Table 3, at 10^−4 M): d (10^−4) (Displacement of < 10% of specific binding at the indicated concentration (M).); Ki (human A3 receptors; Table 3): 2090 ± 40 nM; rA1/hA3 (human A3 receptors; Table 3): >20
8 | CCOC(=O)c1c(-c2cccc(Cl)c2)nc(CC)c(C(=O)SCC)c1CC [Compound 51, 5-Ethyl 2,4-diethyl-3-(ethylsulfanylcarbonyl)-6-(m-chlorophenyl)pyridine-5-carboxylate] | 440 ± 33 nM | 8.2 ± 2.96 µM | 8.91 ± 0.97 µM | 13.4 ± 1.5 nM | 610 | 33 | 19 | –
9 | CCOC(=O)c1c(C2CCCC2)nc(CC)c(C(=O)SCC)c1CC [Compound 52, 5-Ethyl 2,4-diethyl-3-(ethylsulfanylcarbonyl)-6-cyclopentylpyridine-5-carboxylate] | 2800 ± 220 nM | 55.3 ± 14.7 µM | 26.1 ± 6.2 µM | 4010 ± 2490 nM | 14 | 0.83 | >20 | –
10 | CCCOC(=O)c1c(-c2ccccc2)nc(CC)c(C(=O)SCC)c1CCC [Compound 49b, 5-Propyl 2-ethyl-4-propyl-3-(ethylsulfanylcarbonyl)-6-phenylpyridine-5-carboxylate] | 113 ± 12 nM | 18.2 ± 9 µM | – | 24.5 ± 4 nM | 7400 | 6.0 | 140 | rA2A displacement of specific binding (class d) (A2A adenosine receptors; Table 2, at 10^−4 M): d (10^−4) (Displacement of <10% of specific binding at the indicated concentration (M).); affinity at rat and human A3 receptors (in words) (rat A3 receptors; both species): high affinity at both species
11 | CCCC1C(C(=O)SCC)=C(C)NC(c2ccccc2)=C1C(=O)OCC (racemic) [Compound 64, 5-Ethyl 2-methyl-4-propyl-6-phenyl-3-(ethylsulfanylcarbonyl)-1,4-(±)-dihydropyridine-5-carboxylate] | 3100 ± 780 nM | – | – | – | – | – | – | inhibition at 100 µM (A1 adenosine receptors; Table 3, at 10^−4 M): 48 ± 5%; inhibition at 100 µM (A2A adenosine receptors; Table 3, at 10^−4 M, read-out: rA2A % inhibition (percentage of specific binding displaced)): 29 ± 10%
12 | CCOC(=O)c1c(C)nc(-c2ccccc2)c(C(=O)OCC)c1C(OC)OC [Compound 40, 3,5-Diethyl 2-methyl-4-(dimethoxymethyl)-6-phenylpyridine-3,5-dicarboxylate] | – | 1.95 ± 0.43 µM | 2.88 ± 0.61 µM | 783 ± 154 nM | 2.5 | – | – | –
13 | CCOC(=O)c1c(C)nc(-c2ccccc2)c(C(=O)OCc2ccccc2)c1C#Cc1ccccc1 [Compound 43] | – | 11.6 ± 4.8 µM | – | 2750 ± 780 nM | 4.2 | – | – | rA2A percentage of specific binding displaced (A2A adenosine receptors; Table 2, at 10^−4 M): 43 ± 20% (10^−4)
14 | CCOC(=O)c1c(C)nc(C2CCCC2)c(C(=O)OCc2ccccc2)c1C#Cc1ccccc1 [Compound 45, 3-Ethyl 5-benzyl 2-methyl-4-phenylethynyl-6-cyclopentylpyridine-3,5-dicarboxylate] | – | 56.2 ± 20.8 µM | 22.9 ± 5 µM | 3850 ± 790 nM | 15 | – | – | –
15 | CCOC(=O)c1c(C)nc(C2CCC2)c(C(=O)OCc2ccccc2)c1C#Cc1ccccc1 [Compound 44, 3-Ethyl 5-benzyl 2-methyl-4-phenylethynyl-6-cyclobutylpyridine-3,5-dicarboxylate] | – | – | 27.6 ± 12 µM | 2410 ± 590 nM | – | – | – | rA1 displacement of specific binding (class d) (A1 adenosine receptors; Table 2, at 10^−4 M): d (10^−4) (Displacement of <10% of specific binding at the indicated concentration (M).)
16 | CCOC(=O)c1c(-c2ccccc2)nc(C)c(C(=O)SCCOC)c1CC [Compound 37, 5-Ethyl 2-methyl-4-ethyl-3-[2-methoxy-(ethylsulfanylcarbonyl)]-6-phenylpyridine-5-carboxylate] | – | – | 7.98 ± 1.36 µM | 165 ± 12 nM | >500 | – | – | rA1 percentage of specific binding displaced (A1 adenosine receptors; Table 2, at 10^−4 M): 36 ± 11% (10^−4)
17 | CCCOC(=O)c1c(-c2ccccc2)nc(CC)c(C(=O)SCCOC2CCCCO2)c1CCC (stereo not shown) [Compound 13] | – | – | – | – | >20 | – | – | rA1 percentage of specific binding displaced (A1 adenosine receptors; Table 2, at 10^−4 M): 18 ± 1% (10^−4); rA2A displacement of specific binding (class d) (A2A adenosine receptors; Table 2, at 10^−4 M): d (10^−4) (Displacement of <10% of specific binding at the indicated concentration (M).)
18 | CCOC(=O)c1c(-c2ccccc2)nc(C2CCC2)c(C(=O)SCC)c1CC [Compound 58, 5-Ethyl 2-cyclobutyl-4-ethyl-3-(ethylsulfanylcarbonyl)-6-phenylpyridine-5-carboxylate] | – | – | – | 145 ± 44 nM | >500 | – | – | rA1 percentage of specific binding displaced (A1 adenosine receptors; Table 2, at 10^−4 M): 30% (10^−4); rA2A percentage of specific binding displaced (A2A adenosine receptors; Table 2, at 10^−4 M): 22% (10^−4)
19 | CCCOC(=O)c1c(C)nc(-c2ccccc2)c(C(=O)OCC)c1C [Compound 34, 3-Propyl 5-ethyl 2,4-dimethyl-6-phenylpyridine-3,5-dicarboxylate] | – | 5.05 ± 0.54 µM | 24.5 ± 8.5 µM | 215 ± 22 nM | 23 | – | – | –
20 | CCOC(=O)C1=C(C)NC(C2CCCC2)=C(C(=O)OCc2ccccc2)C1C#Cc1ccccc1 (racemic) [Compound 72, 3-Ethyl 5-benzyl 2-methyl-4-phenylethynyl-6-cyclopentyl-1,4(±)-dihydropyridine-3,5-dicarboxylate] | – | – | – | – | – | – | – | Ki (A1 adenosine receptors; Table 3): 17.1 ± 4.3 µM; Ki (A2A adenosine receptors; Table 3): 7.16 ± 1.56 µM; Ki (human A3 receptors; Table 3): 50.5 nM; rA1/hA3 (human A3 receptors; Table 3): 340
